In patent publication US9492368B2, “External preparation for skin” (HAYASHIBARA CO., LTD., priority 2011, dated 2016):
Marks after values point to notes of the source that are not given here.

Columns and labels:
involucrin (INV) = experiment: Real-time PCR gene expression in NHEK cells: involucrin; type: cell-based, human; conditions: 1 μM, seven days, relative to control = 1.00
Experimental: (§1) Since glucosyladenosines were confirmed in Experiment 5 to have an action of enhancing the differentiation of keratinocytes effective for skin improvement, a test for examining the change of the expression level of a molecular marker gene of keratinocytes, as an index, was performed as follows using a real-time PCR analysis method to examine the above action in more detail. The expression level of a ceramide-synthesis-related gene was also studied to examine the influence of glucosyladenosines on ceramide synthesis that had been known to have an important role in moisturizing the skin and barrier function of the skin and deemed to be effective for skin improvement. As genes for analysis, profilaggrin (PFG: a later differentiation marker) and involucrin (INV: an early differentiation marker) as differentiation markers of keratinocytes and β-glucocerebrosidase (GCase) and sphingomyelinase (SMase) as ceramide-synthesis-related enzymes were selected, and a gene for cyclophilin B (CypB) as an internal standard upon practicing PCR reaction was used (see FIG. 7). NHEK cells were inoculated to 6-well plate coated with collagen in an amount of 8×10^4 cells/1.5 ml/well, cultured with EpiLife medium, and cultured at 37° C. for two days under a 5 v/v % CO2 condition. Thereafter, the culture medium was removed, and the resulting cells were added with a fresh EpiLife medium containing 5′-glucosyladenosine, 3′-glucosyladenosine, or adenosine in a volume of 1.5 ml/well (giving a final concentration of 1 μM of any one of glucosyladenosines and adenosine), and cultured for seven days while replacing the medium with a fresh one containing any one of glucosyladenosines and adenosine in a volume of 1.5 ml/well every other day. After completion of the culture, each well was washed twice with PBS(K−), followed by adding 0.2 ml/well of 0.025% by mass of trypsin/EDTA solution to the resulting cells and allowing the cells to stand at an ambient temperature for five minutes to detach them from the plates. […]

[1] = tested on: β-glucocerebrosidase (GCase); experiment: Real-time PCR gene expression in NHEK cells: β-glucocerebrosidase; type: cell-based, human; conditions: 1 μM, seven days, relative to control = 1.00
Experimental: as §1

[2] = tested on: keratinocyte growth factor (KGF); experiment: Expression of keratinocyte growth factor in NHDF cells (real-time PCR); type: cell-based, human; conditions: four hours, control = 1.0
Source text: The confirmation that glucosyladenosines have an action of enhancing the differentiation of keratinocytes in Experiments 5 and 7 led to an examination on keratinocyte proliferation. The effects of 5′- and […] on the expression of keratinocyte growth factor (KGF) in normal human dermal fibroblasts (NHDF) were compared. […] After the culture, the supernatant in each well was removed and added with 5′-glucosyladenosine obtained by the method in Experiment 1-2 or 3′-glucosyladenosine obtained by the method in Experiment 2, which were respectively diluted with a DMEM medium supplemented with 1 v/v % FCS to give respective concentrations of 0.15 mM and 1.5 mM. A DMEM medium supplemented with 1 v/v % FCS but with no glucosyladenosines was used as a control. The cells were cultured at 37° C. for four hours under a 5 v/v % CO2 condition, washed twice with PBS(−) after removing the culture supernatants in each well by aspiration, and fed to an RNA extraction.
“QIA shledder+RNeasy Mini Kit”, a product name of a commercialized RNA extraction kit, produced by GIAGEN Benelux B.V., Netherlands, was used to extract the total RNAs. The handlings followed the operating instructions attached to the kit. Using “Super Script VILO cDNA Synthesis Kit”, a product name of a cDNA synthesis kit, commercialized by Invitrogen Corporation, CA, USA, an RT reaction was conducted under the conditions of treating a mixture of 10.5 μl of RNA, three microliters of 5×VILO reaction mix, 1.5 μl of 10× enzyme mix (15 μl in total) at 25° C. for 10 min, 42° C. for 60 min, and then 85° C. for five minutes.
Using “LightCycler 480 SYBR Green I Master”, a product name of Roche Diagnostics K.K., Tokyo, Japan, a real-time PCR reaction was conducted by mixing 1.8 μl of water, 6.0 μl of master mix, 0.6 μl of primer L (10 μM), 0.6 μl of primer R (10 μM), and 3.0 μl of template (12.0 μl in total), and treated with 45 cycles of a successive incubation cycle at 95° C. for 10 sec, 60° C. for 10 sec, and 72° C. for 15 sec). The KGF expression level in each sample was calculated from a standard curve and calibrated with the expression level of an internal standard (18s rRNA). Relative value for each sample was determined, when the expression level of the control was regarded as 1.0, and evaluated. The primers used were of Table 9.

[3] = tested on: three-dimensional skin model (EPI-200 Kit); experiment: Cytotoxicity: LDH release from three-dimensional skin model; type: cell-based; conditions: 18 hours, control = 1.0
Experimental: To examine whether glucosyladenosines are successively applied to the skin as ingredients for sustainable external dermal agents, they were examined for cytotoxicity. The strengths of cytotoxicity of glucosyladenosines were examined with an index of […] (LDH) that is released when cell are damaged, as an influence of glucosyladenosines and adenosine on three dimensional skin. […] A system, to which 30% ethanol with no glucosyladenosines and adenosine was added, was provided as a control. For the collected media, the activity of […] (LDH) released from each skin model was assayed on “CYTOTOXICITY DETECTION KIT (LDH)”, a product name of Hoffmann-La Roche Ltd., Basel, Switzerland, and calibrated for obtaining a relative LDH activity by regarding the LDH activity of the control as 1.0 in order to evaluate the cytotoxicity for each sample.

Compound	Gene expression level INV (involucrin (INV))	Gene expression level GCase [1]	Relative expression level of KGF ([2]; 0.15 mM)	Relative expression level of KGF ([2]; 1.5 mM)	Relative LDH activity ([3]; concentration 5%)	Relative LDH activity ([3]; concentration 0.1%)	Relative LDH activity ([3]; concentration 1%)
Nc1ncnc2c1ncn2[C@@H]1O[C@H](CO)[C@@H](O[C@H]2O[C@H](CO)[C@@H](O)[C@H](O)[C@H]2O)[C@H]1O [3′-Glucosyladenosine, α-D-glucopyranosyl-(1→3′)-adenosine]	1.52*	2.08*	2.3	2.7	0.99		
Nc1ncnc2c1ncn2[C@@H]1O[C@H](CO[C@H]2O[C@H](CO)[C@@H](O)[C@H](O)[C@H]2O)[C@@H](O)[C@H]1O [5′-Glucosyladenosine, α-D-glucopyranosyl-(1→5′)-adenosine]	1.66**	2.68**	0.9	1.4	0.79		
Nc1ncnc2c1ncn2[C@@H]1O[C@H](CO)[C@@H](O)[C@H]1O [Adenosine, reference compound]	1.15	1.37				1.38	3.68
